Source: ChEMBL document CHEMBL3593212, “Synthesis and evaluation of novel 1H-pyrrolo[2,3-b]pyridine-5-carboxamide derivatives as potent and orally efficacious immunomodulators targeting JAK3” (Bioorg Med Chem, 2015)

Columns and labels:
[1] = target: Epidermal growth factor receptor (Homo sapiens, UniProt P00533); assay: Inhibition of EGFR (unknown origin)
[2] = target: RAC-alpha serine/threonine-protein kinase (Homo sapiens, UniProt P31749); assay: Inhibition of AKT1 (unknown origin)
[3] = AUC (0 to 24 hrs) in cynomolgus monkey at 3 mg/kg, po by LC/MS/MS method; format: ADME, organism-based, Macaca fascicularis; parameters: time < 24 hr, dose 3 mg/kg, route oral; conditions: in vivo
[4] = target: Rho-associated protein kinase 1 (Homo sapiens, UniProt Q13464); assay: Inhibition of ROCK1 (unknown origin)
[5] = target: Tyrosine-protein kinase BTK (Homo sapiens, UniProt Q06187); assay: Inhibition of BTK (unknown origin)
[6] = target: Tyrosine-protein kinase CSK (Homo sapiens, UniProt P41240); assay: Inhibition of CSK (unknown origin)
Focal adhesion kinase 1 = Focal adhesion kinase 1 (Homo sapiens, UniProt Q05397); assay: Inhibition of FAK (unknown origin)
[7] = target: Insulin-like growth factor 1 receptor (Homo sapiens, UniProt P08069); assay: Inhibition of IGF1R (unknown origin)
[8] = target: Tyrosine-protein kinase JAK2 (Homo sapiens, UniProt O60674); assay: Inhibition of human JAK2 kinase domain using biotin-Lyn-substrate-2 as substrate incubated for 1 hr by ELISA method
[9] = target: Tyrosine-protein kinase ABL1 (Homo sapiens, UniProt P00519); assay: Inhibition of ABL (unknown origin)
[10] = Cmax in Sprague-Dawley rat at 3 mg/kg, po by LC/MS/MS method; format: ADME, organism-based; parameters: dose 3 mg/kg, route oral; conditions: in vivo
[11] = target: Tyrosine-protein kinase Tec (Homo sapiens, UniProt P42680); assay: Inhibition of TEC (unknown origin)
[12] = target: Receptor tyrosine-protein kinase erbB-2 (Homo sapiens, UniProt P04626); assay: Inhibition of HER2 (unknown origin)
[13] = target: High affinity nerve growth factor receptor (Homo sapiens, UniProt P04629); assay: Inhibition of TRKA (unknown origin)
[14] = target: Tyrosine-protein kinase JAK1 (Homo sapiens, UniProt P23458); assay: Inhibition of human JAK1 kinase domain using biotin-Lyn-substrate-2 as substrate incubated for 1 hr by ELISA method
[15] = target: Tyrosine-protein kinase ZAP-70 (Homo sapiens, UniProt P43403); assay: Inhibition of ZAP70 (unknown origin)
[16] = target: Dual specificity mitogen-activated protein kinase kinase 1 (Homo sapiens, UniProt Q02750); assay: Inhibition of MEK1 (unknown origin)
[17] = target: Casein kinase I isoform delta (Homo sapiens, UniProt P48730); assay: Inhibition of CK1delta (unknown origin)
[18] = Total clearance in beagle dog at 1 mg/kg, iv by LC/MS/MS method; format: ADME, organism-based, Canis lupus familiaris; conditions: in vivo
[19] = Tmax in Sprague-Dawley rat at 3 mg/kg, po by LC/MS/MS method; format: ADME, organism-based; conditions: in vivo
[20] = Intrinsic clearance in beagle dog liver microsomes at 0.2 uM in presence of NADPH generating system by LC/MS/MS method; format: ADME, Canis lupus familiaris; conditions: read-out: CLH
[21] = AUC (0 to 24 hrs) in beagle dog at 3 mg/kg, po by LC/MS/MS method; format: ADME, organism-based, Canis lupus familiaris; parameters: time < 24 hr, dose 3 mg/kg, route oral; conditions: in vivo
[22] = target: Mitogen-activated protein kinase 10 (Homo sapiens, UniProt P53779); assay: Inhibition of JNK3 (unknown origin)
[23] = Oral bioavailability in cynomolgus monkey at 3 mg/kg by LC/MS/MS method; format: ADME, organism-based, Macaca fascicularis; conditions: in vivo
[24] = Volume of distribution at steady state in Sprague-Dawley rat at 1 mg/kg, iv by LC/MS/MS method; format: ADME, organism-based; conditions: in vivo, read-out: Vdss
[25] = target: Tyrosine-protein kinase SYK (Homo sapiens, UniProt P43405); assay: Inhibition of SYK (unknown origin)
[26] = Tmax in cynomolgus monkey at 3 mg/kg, po by LC/MS/MS method; format: ADME, organism-based, Macaca fascicularis; conditions: in vivo
[27] = AUC (0 to 24 hrs) in cynomolgus monkey at 1 mg/kg, iv by LC/MS/MS method; format: ADME, organism-based, Macaca fascicularis; parameters: time < 24 hr, dose 1 mg/kg, route intravenous; conditions: in vivo
[28] = target: Mitogen-activated protein kinase kinase kinase 1 (Homo sapiens, UniProt Q13233); assay: Inhibition of MEKK1 (unknown origin)
[29] = target: Mitogen-activated protein kinase kinase kinase 9 (Homo sapiens, UniProt P80192); assay: Inhibition of MLK1 (unknown origin)
[30] = Oral bioavailability in Sprague-Dawley rat at 3 mg/kg by LC/MS/MS method; format: ADME, organism-based; conditions: in vivo
[31] = AUC (0 to 24 hrs) in Sprague-Dawley rat at 3 mg/kg, po by LC/MS/MS method; format: ADME, organism-based; parameters: dose 3 mg/kg, time < 24 hr, route oral; conditions: in vivo
[32] = Half life in beagle dog at 1 mg/kg, iv by LC/MS/MS method; format: ADME, organism-based, Canis lupus familiaris; conditions: in vivo
Rattus norvegicus [33] = assay: Inhibition of allograft rejection in Lewis rat vascularized heterotopic cardiac transplantation model using ACI rat as cardiac donor assessed as mean survival time by measuring cardiac allograft function by daily palpation for 28 days at 20 mg/kg, po administered beginning on day of operation once daily for 14 consecutive days (reference value: 5 days); format: functional
[34] = Oral bioavailability in beagle dog at 3 mg/kg by LC/MS/MS method; format: ADME, organism-based, Canis lupus familiaris; conditions: in vivo
[35] = Volume of distribution at steady state in cynomolgus monkey at 1 mg/kg, iv by LC/MS/MS method; format: ADME, organism-based, Macaca fascicularis; conditions: in vivo, read-out: Vdss
[36] = Cmax in cynomolgus monkey at 3 mg/kg, po by LC/MS/MS method; format: ADME, organism-based, Macaca fascicularis; parameters: dose 3 mg/kg, route oral; conditions: in vivo
[37] = target: Glycogen synthase kinase-3 beta (Homo sapiens, UniProt P49841); assay: Inhibition of GSK3beta (unknown origin)
Angiopoietin-1 receptor = Angiopoietin-1 receptor (Homo sapiens, UniProt Q02763); assay: Inhibition of TIE2 (unknown origin)
[38] = Cmax in beagle dog at 3 mg/kg, po by LC/MS/MS method; format: ADME, organism-based, Canis lupus familiaris; parameters: dose 3 mg/kg, route oral; conditions: in vivo
Rattus norvegicus [39] = assay: Inhibition of allograft rejection in Lewis rat vascularized heterotopic cardiac transplantation model using ACI rat as cardiac donor assessed as mean survival time by measuring cardiac allograft function by daily palpation for 28 days at 10 mg/kg, po administered beginning on day of operation once daily for 14 consecutive days (reference value: 5 days); format: functional
[40] = target: Protein kinase C alpha type (Homo sapiens, UniProt P17252); assay: Inhibition of PKCalpha (unknown origin)
[41] = target: Bone morphogenetic protein receptor type-1A (Homo sapiens, UniProt P36894); assay: Inhibition of BMPR1A (unknown origin)
Rattus norvegicus [42] = assay: Inhibition of allograft rejection in Lewis rat vascularized heterotopic cardiac transplantation model using ACI rat as cardiac donor assessed as mean survival time by measuring cardiac allograft function by daily palpation for 28 days at 10 and 20 mg/kg, po administered beginning on day of operation once daily for 14 consecutive days (reference value: 5 days); format: functional, organism-based
[43] = Intrinsic clearance in cynomolgus monkey liver microsomes at 0.2 uM in presence of NADPH generating system by LC/MS/MS method; format: ADME, Macaca fascicularis; conditions: read-out: CLH
[44] = Inhibition of JAK1/JAK3 in Lewis rat splenocytes assessed as reduction in IL2-stimulated T-cell proliferation incubated for 3 days by alamar blue dye based fluorescence assay; conditions: 72 h
[45] = target: Ribosomal protein S6 kinase beta-1 (Homo sapiens, UniProt P23443); assay: Inhibition of p70S6K (unknown origin)

Insulin-like growth factor 1 receptor, sequence (P08069 31-736 limits assumed): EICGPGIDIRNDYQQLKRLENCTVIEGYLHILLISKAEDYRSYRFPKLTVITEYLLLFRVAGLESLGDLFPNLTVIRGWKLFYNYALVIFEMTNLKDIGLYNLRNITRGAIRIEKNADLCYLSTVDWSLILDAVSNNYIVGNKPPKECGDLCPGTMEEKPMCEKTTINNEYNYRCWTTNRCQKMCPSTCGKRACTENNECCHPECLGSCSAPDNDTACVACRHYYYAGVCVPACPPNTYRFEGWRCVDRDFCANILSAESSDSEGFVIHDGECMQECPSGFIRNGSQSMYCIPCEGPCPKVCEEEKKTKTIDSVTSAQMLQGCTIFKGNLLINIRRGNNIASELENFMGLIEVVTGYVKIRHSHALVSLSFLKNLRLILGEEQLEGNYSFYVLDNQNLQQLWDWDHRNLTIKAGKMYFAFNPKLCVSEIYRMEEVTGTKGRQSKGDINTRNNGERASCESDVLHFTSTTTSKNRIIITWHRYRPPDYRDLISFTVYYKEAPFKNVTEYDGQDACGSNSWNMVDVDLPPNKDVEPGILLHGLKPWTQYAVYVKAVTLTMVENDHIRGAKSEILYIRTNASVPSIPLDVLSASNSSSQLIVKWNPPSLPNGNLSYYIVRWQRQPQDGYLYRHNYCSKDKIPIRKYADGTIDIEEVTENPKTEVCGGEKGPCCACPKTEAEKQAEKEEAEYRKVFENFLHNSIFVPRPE
Insulin-like growth factor 1 receptor, sequence (P08069 741-1367 limits assumed): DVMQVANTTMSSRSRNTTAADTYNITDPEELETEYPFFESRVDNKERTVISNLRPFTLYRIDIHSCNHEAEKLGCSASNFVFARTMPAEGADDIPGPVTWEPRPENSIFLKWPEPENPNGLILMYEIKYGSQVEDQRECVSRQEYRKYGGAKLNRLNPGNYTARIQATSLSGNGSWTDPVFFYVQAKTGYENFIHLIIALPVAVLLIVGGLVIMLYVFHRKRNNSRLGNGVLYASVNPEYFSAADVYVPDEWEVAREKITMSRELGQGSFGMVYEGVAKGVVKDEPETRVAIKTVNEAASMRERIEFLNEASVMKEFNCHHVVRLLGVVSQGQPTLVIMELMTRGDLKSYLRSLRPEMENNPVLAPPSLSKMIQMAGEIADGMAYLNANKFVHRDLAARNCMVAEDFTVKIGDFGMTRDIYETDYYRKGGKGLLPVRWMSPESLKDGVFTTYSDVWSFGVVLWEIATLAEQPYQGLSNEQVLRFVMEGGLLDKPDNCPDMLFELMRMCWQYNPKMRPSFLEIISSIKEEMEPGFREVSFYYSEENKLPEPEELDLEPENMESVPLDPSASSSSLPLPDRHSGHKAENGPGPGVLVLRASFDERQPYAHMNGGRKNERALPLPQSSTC
RAC-alpha serine/threonine-protein kinase, sequence (P31749 whole entry): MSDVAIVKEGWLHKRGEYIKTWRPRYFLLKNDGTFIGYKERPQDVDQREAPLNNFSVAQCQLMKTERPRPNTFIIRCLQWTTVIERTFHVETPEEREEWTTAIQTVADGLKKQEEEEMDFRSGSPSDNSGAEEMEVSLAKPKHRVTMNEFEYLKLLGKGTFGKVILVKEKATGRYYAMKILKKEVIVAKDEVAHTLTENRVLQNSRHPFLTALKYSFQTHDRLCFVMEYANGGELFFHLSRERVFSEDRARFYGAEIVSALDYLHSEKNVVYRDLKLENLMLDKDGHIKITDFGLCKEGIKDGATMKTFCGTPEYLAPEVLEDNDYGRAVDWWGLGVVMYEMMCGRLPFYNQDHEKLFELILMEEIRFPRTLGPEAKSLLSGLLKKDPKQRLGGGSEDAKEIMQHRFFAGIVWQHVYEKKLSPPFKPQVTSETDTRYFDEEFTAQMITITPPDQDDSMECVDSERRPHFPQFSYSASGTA
Tyrosine-protein kinase Tec, sequence (P42680 whole entry): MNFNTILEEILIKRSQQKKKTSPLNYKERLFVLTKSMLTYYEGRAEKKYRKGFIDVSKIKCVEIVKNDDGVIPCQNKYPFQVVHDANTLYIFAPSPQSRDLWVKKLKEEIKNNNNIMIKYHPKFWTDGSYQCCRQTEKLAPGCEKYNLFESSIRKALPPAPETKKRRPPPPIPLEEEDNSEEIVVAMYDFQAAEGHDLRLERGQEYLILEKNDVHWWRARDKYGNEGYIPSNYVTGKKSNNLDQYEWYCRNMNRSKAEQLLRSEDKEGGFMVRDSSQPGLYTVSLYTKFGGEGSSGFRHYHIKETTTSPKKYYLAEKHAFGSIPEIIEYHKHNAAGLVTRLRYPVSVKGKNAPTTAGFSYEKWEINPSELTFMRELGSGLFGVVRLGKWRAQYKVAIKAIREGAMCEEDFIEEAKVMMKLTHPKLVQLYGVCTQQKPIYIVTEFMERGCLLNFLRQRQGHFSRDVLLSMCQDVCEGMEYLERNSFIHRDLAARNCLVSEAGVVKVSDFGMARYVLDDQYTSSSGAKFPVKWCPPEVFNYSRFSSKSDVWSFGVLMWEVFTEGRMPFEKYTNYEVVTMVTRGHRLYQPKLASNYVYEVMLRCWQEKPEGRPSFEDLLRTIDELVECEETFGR
Receptor tyrosine-protein kinase erbB-2, sequence (P04626 whole entry): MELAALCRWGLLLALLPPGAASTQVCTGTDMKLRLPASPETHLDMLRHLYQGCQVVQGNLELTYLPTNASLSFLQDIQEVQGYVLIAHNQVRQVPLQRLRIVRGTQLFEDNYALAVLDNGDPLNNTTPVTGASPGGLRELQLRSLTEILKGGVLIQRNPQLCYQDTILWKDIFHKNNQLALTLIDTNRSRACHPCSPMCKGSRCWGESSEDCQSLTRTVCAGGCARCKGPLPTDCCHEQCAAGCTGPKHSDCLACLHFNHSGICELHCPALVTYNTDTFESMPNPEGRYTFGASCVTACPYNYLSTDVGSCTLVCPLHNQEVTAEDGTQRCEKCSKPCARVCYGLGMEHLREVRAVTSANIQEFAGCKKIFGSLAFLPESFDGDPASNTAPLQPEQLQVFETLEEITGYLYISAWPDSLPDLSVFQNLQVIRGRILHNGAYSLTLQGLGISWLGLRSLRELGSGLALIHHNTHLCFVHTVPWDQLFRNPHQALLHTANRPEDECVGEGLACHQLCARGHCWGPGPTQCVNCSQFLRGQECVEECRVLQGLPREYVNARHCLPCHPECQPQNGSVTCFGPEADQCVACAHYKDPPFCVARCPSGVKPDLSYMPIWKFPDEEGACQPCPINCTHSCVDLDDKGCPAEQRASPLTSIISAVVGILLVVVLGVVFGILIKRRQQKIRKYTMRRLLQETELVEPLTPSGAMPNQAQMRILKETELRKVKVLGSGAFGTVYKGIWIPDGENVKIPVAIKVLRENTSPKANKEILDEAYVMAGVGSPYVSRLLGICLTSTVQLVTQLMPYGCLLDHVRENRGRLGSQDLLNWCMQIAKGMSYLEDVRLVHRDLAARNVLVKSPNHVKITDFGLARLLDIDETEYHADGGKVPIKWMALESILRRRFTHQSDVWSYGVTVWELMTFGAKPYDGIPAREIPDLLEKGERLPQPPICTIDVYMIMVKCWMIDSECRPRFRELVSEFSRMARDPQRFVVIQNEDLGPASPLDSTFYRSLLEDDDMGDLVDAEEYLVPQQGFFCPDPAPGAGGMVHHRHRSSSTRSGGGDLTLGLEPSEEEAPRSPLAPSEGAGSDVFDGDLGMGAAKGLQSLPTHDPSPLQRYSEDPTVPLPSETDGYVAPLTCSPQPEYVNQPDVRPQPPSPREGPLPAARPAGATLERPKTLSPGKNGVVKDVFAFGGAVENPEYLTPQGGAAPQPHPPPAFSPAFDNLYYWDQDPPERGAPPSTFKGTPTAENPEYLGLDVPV
Focal adhesion kinase 1, sequence (Q05397 whole entry): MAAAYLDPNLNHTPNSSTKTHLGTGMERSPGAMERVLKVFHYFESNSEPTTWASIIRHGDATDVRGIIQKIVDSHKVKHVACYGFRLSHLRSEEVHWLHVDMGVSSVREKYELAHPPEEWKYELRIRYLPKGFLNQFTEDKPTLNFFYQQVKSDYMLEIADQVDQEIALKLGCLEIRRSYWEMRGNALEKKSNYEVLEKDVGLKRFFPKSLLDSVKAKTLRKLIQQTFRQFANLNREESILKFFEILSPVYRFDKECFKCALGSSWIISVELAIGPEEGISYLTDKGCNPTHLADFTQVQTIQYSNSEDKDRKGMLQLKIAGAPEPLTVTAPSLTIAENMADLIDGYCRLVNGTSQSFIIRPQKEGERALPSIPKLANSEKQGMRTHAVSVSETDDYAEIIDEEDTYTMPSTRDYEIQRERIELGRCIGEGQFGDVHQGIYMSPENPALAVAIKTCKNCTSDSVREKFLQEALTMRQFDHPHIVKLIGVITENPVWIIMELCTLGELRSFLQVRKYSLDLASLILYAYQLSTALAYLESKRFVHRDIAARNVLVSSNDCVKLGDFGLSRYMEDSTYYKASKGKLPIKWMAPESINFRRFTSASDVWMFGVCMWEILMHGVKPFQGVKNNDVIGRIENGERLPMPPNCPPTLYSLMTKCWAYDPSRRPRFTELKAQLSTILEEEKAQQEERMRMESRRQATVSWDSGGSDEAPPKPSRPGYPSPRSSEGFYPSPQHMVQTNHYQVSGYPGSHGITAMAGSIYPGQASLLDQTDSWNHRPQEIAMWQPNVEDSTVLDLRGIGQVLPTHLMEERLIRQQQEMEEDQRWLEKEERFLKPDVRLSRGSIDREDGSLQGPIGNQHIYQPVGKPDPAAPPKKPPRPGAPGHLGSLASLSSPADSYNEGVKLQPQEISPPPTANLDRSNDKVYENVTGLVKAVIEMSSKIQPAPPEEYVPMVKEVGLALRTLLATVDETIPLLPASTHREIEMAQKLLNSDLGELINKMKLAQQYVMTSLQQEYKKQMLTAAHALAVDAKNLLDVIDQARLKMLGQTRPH

## N#Cc1ccc(N2CC[C@@H](Nc3c(C(N)=O)cnc4[nH]ccc34)[C@@H](F)C2)nc1
[1]
  IC50: > 1000 nM
[2]
  IC50: > 1000 nM
[3]
  AUC(0-t) at 24 h: 8690 ng·h/mL
[4]
  IC50: 190 nM
[5]
  IC50: > 1000 nM
[6]
  IC50: > 1000 nM
Focal adhesion kinase 1
  IC50: > 1000 nM
[7]
  IC50: > 1000 nM
[8]
  IC50: 3.2 nM
[9]
  IC50: > 1000 nM
[10]
  Cmax: 633 ng/mL
[11]
  IC50: > 1000 nM
[12]
  IC50: > 1000 nM
[13]
  IC50: 470 nM
[14]
  IC50: 4.1 nM
[15]
  IC50: > 1000 nM
[16]
  IC50: > 1000 nM
[17]
  IC50: > 1000 nM
[18]
  clearance: 3 mL/min/kg
[19]
  Tmax: 3.3 h
[20]
  CLint scaled at 0.2 µM: 18.8 mL/min/kg
[21]
  AUC(0-t) at 24 h: 8300 ng·h/mL
[22]
  IC50: 560 nM
[23]
  bioavailability: 64.3%
[24]
  Vd: 1.1 L/kg
[25]
  IC50: > 1000 nM
[26]
  Tmax: 5.3 h
[27]
  AUC(0-t) at 24 h: 4490 ng·h/mL
[28]
  IC50: > 1000 nM
[29]
  IC50: 51 nM
[30]
  bioavailability: 70.7%
[31]
  AUC(0-t) at 24 h: 6780 ng·h/mL
[32]
  half-life: 4.2 h
Rattus norvegicus [33]
  MST: 22 days
[34]
  bioavailability: 49.1%
[35]
  Vd: 1.5 L/kg
[36]
  Cmax: 684 ng/mL
[37]
  IC50: 980 nM
Angiopoietin-1 receptor
  IC50: > 1000 nM
[38]
  Cmax: 666 ng/mL
Rattus norvegicus [39]
  MST: 11.5 days
[40]
  IC50: 130 nM
[41]
  IC50: > 1000 nM
Rattus norvegicus [42]
  inhibition: Dose-dependent effect
[43]
  CLint scaled at 0.2 µM: 9.9 mL/min/kg
[44]
  IC50: 11 nM
[45]
  IC50: > 1000 nM
